“Also recorded” adds a separate entry of the source. Read-outs that look alike come from different tables or passages of the source. Where no end group is shown, it is not given here.

The test system of assay [1] is purified mitochondria. Description: Binding of FITC-Vpr52-96 to purified mitochondria. The following applies: pre-incubation 10 min. The method, then:
Mitochondria were left unstained (insert in Co.) or exposed to the ΔΨm-insensitive mitochondrial dye MitoTracker® Green (75 nM), alone (MTG) or with 0.5 μM of FITC-Vpr52-96; green fluorescence), in combination with the ΔΨm-sensitive mitochondrial dye MitoTracker® Red (CMXRos; red Fluorescence) followed by cytofluorometric two-color analysis. Numbers indicate the percentage of mitochondria in each quadrant.
(§1) Mitochondria were pre-incubated 10 min. with the indicated inhibitors and the percentage of FITC-Vpr52-96-labelled mitochondria is determined as in A. C. […] Mitochondria were incubated with the indicated inhibitors, and then exposed for 30 min at RT with 5 μM biotinylated Vpr52-96. Mitochondria were lysed either after incubation with biotinylated Vpr52-96 (upper panel) or lysed before (lower panel) with Tris/HCl as described in materials and methods. Biotinylated Vpr52-96 complexed with its mitochondrial ligands was retained on avidin-agarose and subjected to immunoblot detection of ANT.

Assay [2] addresses T1, Vpr52-96-ANT interaction (Rattus norvegicus, UniProt Q05962).
T1 construct: from tissue; host or cells: rat heart (ANT)
T1 sequence (Q05962 2-298 limits assumed): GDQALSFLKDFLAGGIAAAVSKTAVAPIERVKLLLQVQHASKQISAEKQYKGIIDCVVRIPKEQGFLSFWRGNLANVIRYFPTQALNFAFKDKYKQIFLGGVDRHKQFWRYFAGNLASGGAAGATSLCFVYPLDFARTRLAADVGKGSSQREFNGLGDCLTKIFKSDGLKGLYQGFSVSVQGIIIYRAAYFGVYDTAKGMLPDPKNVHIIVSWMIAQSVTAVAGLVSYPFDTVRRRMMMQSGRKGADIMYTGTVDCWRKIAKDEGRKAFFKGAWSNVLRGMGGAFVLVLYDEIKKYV
Type of assay: binding. The following applies: BA 250 μM, Atr 50 μM, peptides 5 μM.

The subject of assay [3] is isolated mitochondria. Description: Electron microscopy of isolated mitochondria (matrix swelling). Type of assay: biochemical. The following applies: for inhibition of Vpr-induced matrix swelling: Vpr52-96 3 μM, 0.8 μM Bcl-2 or 2 μM PA10. An excerpt:
C. Ultrastructural effects of Vpr on isolated mitochondria.

The target in assay [4] is T2, ANT-proteoliposomes (Rattus norvegicus, UniProt Q05962).
T2 construct: ANT is purified from rat heart and reconstituted in liposomes; from tissue; host or cells: rat heart
T2 sequence (Q05962 1-298): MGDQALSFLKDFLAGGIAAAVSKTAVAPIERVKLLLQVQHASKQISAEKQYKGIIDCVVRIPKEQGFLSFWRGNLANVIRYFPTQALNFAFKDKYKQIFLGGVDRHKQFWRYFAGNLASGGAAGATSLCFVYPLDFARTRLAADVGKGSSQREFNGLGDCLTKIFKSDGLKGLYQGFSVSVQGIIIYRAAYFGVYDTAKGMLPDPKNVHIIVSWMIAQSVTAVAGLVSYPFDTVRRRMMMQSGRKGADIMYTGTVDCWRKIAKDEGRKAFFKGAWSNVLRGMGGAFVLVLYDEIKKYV
Type of assay: binding. The method, then:
1. Purification of ANT. ANT is purified from rat heart and reconstituted in liposomes according to the protocol described by Brenner et al., Oncogene, 2000.
2. Reconstitution of ANT in liposomes. ANT (0.03 mg/ml) is incorporated in liposomes composed of phosphatidylcholine and cardiolipine (PC:CL; 45:1; W: w; and 300 ng ANT per mg of lipids) in the presence of 0.3% n-octyl-β-D-pyranoside for 2 min. at room temperature. […] Then, the detergent is eliminated by dialyzing, overnight, the liposomes against the buffer 10 mM HEPES, 125 mM sucrose, pH7.4 at 4° C. (e.g.: about 11 of buffer per 1 ml liposomes).

Assay [5] relates to purified mitochondria. Description: ΔΨm dissipation in purified mitochondria (JC-1 flow cytometry). Type of assay: biochemical. The following applies: for inhibition of Vpr-induced ΔΨm loss in purified mitochondria: 5 μM CsA, 50 μM BA, 0.8 μM Bcl-2, 2 μM PA10, Vpr52-96 3 μM, 5 min. The method, then:
C. […] Purified mitochondria were treated with 1 μM Vpr52-96 subjected to cytofluorometric determination of the percentage of mitochondria having a low ΔΨm using the ΔΨm-sensitive fluorochrome JC-1. In parallel, cytochrome c was immunodetected in the supernatant of mitochondria.
Numbers indicate the percentage of JC-1^high and JC-1^low mitochondria among ˜10^4 events.
E. Quantitation of the frequency of JC-1^low mitochondria (X±SD, n=5) after incubation with different Vpr-derived peptides.

In assay [6] the target is Vpr52-96 (Human immunodeficiency virus type 1 group M subtype B, UniProt P69726).
Assay [7] concerns ANT. As to conditions: 5 μM biotinylated Vpr52-96, 30 min. As for the experimental part: as §1
The target of assay [8] is T3, ANT (Rattus norvegicus, UniProt Q05962).
T3 construct: from tissue; host or cells: rat heart
T3 sequence (Q05962 whole entry, looked up): T2 sequence (Q05962 1-298)
Type of assay: biochemical. The method, then:
(§2) FIG. 3 presents electrophysiological properties of Vpr52-96 and ANT in planar lipid bilayers.
(§3) Single channel recordings were performed using the “Tip-Dip” technique. The recordings shown are representative for at least three independent determinations.
(§4) B. Statistical analysis of conductances obtained in A. Results were expressed as current distributions at different voltages. Conductances (γ; in picosiemens, pS) are calculated by division of current by voltage.

Assay [9] has as its system COS cells. Nature of the assay: Vpr52-96-induced ΔΨm dissipation in intact microinjected cells. It counts as cell-based. The following applies: Bcl-2 10 μM, PA10 2 μM microinjected. An excerpt:
A. Vpr52-96-induced ΔΨm dissipation induced in intact cells.

Assay [10] has as its system purified mitochondria. Nature of the assay: Respirometry of purified mitochondria (respiratory control). Type of assay: biochemical. The following applies: 10 min after 1 μM peptide; control mitochondria 5.3. As for the experimental part:
A. Oxygen consumption curves after addition of the indicated agents. Trace a: control mitochondria (no pretreatment). Trace b: mitochondria pretreated for 10 min with 1 μM Vpr52-96. Numbers along the traces are nmol of 02 consumed min^−1 mg^−1 protein.
B. Respiratory control (RC) values calculated by dividing oxygen consumption in the presence of CCCP by that measured with oligomycin (determined as in A), 10 min after addition of 1 μM of Vpr-derived peptides (mean values of 3 determinations).

Assay [11] addresses T4, ANT (Rattus norvegicus, UniProt Q05962).
T4 construct: from tissue; host or cells: rat heart
As to conditions: surface plasmon resonance, Jacotot et al. 2000; cited from earlier work.

For assay [12], the target named is T4, ANT. Type of assay: biochemical. As for the experimental part:
as §2, §3, §4
The source holds these as a separate data set.

Assay [13] concerns the target T4, ANT. Type of assay: binding. The following applies: X±SD, n=5; read-out: calculated KD of the interaction of ANT with Vpr52-96. The text has this:
A. Plasma surface resonance sensorgrams of the interaction of ANT with Vpr52-96, Vpr52-96[R73A,80A] or an irrelevant control (Co).
B. Langmuir isotherm determined at different concentrations of ANT on sensorgrams corrected by subtraction of the blank (sensorgrams obtained with Vpr52-96[R73A,80A]).

Assay [14] addresses biotin-Vpr52-96 (biotinylated C-terminal moiety of HIV-1 Vpr) (HIV-1), P12520. Nature of the assay: surface plasmon resonance, Langmuir isotherm, peptide on biotinylated Vpr52-96.
Assay [15] addresses T5, adenine nucleotide translocator (ANT), native purified, detergent-solubilized or reconstituted in liposomes / planar lipid bilayers (rat), Q05962.
T5 chain: T1 sequence (Q05962 2-298 limits assumed)
Description: cell-based or functional assay.

In assay [16] the target is T5, adenine nucleotide translocator (ANT), …. Nature of the assay: flow cytometry of liposomes; FITC-Vpr52-96 on ANT-proteoliposomes.

On to `CO[C@H](C/C=C\C=C\CC/C=C/C[C@H](C)/C=C/C(=C\C(=O)O)CC(=O)O)/C(C)=C\C=C(/C)C(=O)O` [BA, bongkrekic acid, reference compound], for which the “effect on binding of Vpr52-96 to purified mitochondria” value in assay [1] is reported as “partially reduced”. Besides, in assay [2], the “modulation of the Vpr52-96-ANT interaction by ANT ligands and peptides” value was “reduces Vpr binding”. For the same molecule, the “inhibition of Vpr-induced matrix swelling” value in assay [3] is listed as “inhibited”. For the same molecule, in assay [4] (BA 50 μM, Bcl-2 800 nM), the “effect on Vpr52-96 binding to membrane-associated ANT (ANT proteoliposomes)” value was “inhibited”. For the same molecule, the “inhibition of Vpr-induced ΔΨm loss in purified mitochondria” value in assay [5] is listed as “inhibited”.
With Bcl-2: recombinant human Bcl-2 protein, the “binding of Bcl-2 to Vpr52-96” value in assay [6] was “did not bind Vpr52-96”. Also, the “effect on binding of Vpr52-96 to purified mitochondria” value in assay [1] is “failed to impair the binding”. The “effect on affinity purification of ANT with biotinylated Vpr52-96, intact mitochondria” value in assay [7] is “reduced the Vpr52-96-mediated recovery of ANT”. For the same molecule, the “effect on formation of Vpr52-96 induced channels in ANT-containing lipid bilayers” value in [8] is recorded as “abolished the formation of Vpr52-96 induced channels”. The “prevention of Vpr effect on intact cells by microinjection” value in assay [9] is given as “prevented”. For the same molecule, the “inhibition of Vpr-induced matrix swelling” value in assay [3] is listed as “inhibited; also recorded: strongly reduced”. Also, the “effect on Vpr52-96 binding to membrane-associated ANT (ANT proteoliposomes)” value in [4] was “reduced Vpr52-96 binding”. Also, the “inhibition of Vpr-induced ΔΨm loss in purified mitochondria” value in assay [5] was “inhibited; also recorded: strongly reduced”.
For the molecule `C=C1[C@@H]2CC[C@H]3[C@]4(C)C[C@H](O[C@@H]5O[C@H](CO)[C@@H](OS(=O)(=O)O)[C@H](OS(=O)(=O)O)[C@H]5OC(=O)CC(C)C)C[C@@H](C(=O)O)[C@H]4CC[C@]3(C2)[C@H]1O` [Atr, atractyloside], in [2], the “modulation of the Vpr52-96-ANT interaction by ANT ligands and peptides” value is on record as “favors Vpr binding”.
With `CC[C@H](C)[C@H](NC(=O)[C@H](C)NC(=O)[C@H](CCC(=O)O)NC(=O)[C@@H](NC(=O)CNC(=O)[C@H](C)NC(=O)[C@H](Cc1c[nH]c2ccccc12)NC(=O)[C@@H](NC(=O)[C@@H](N)CC(=O)O)[C@@H](C)O)C(C)C)C(=O)N[C@H](C(=O)N[C@@H](CCCNC(=N)N)C(=O)N[C@H](C(=O)N[C@@H](CC(C)C)C(=O)N[C@@H](CCC(N)=O)C(=O)N[C@@H](CCC(N)=O)C(=O)N[C@@H](CC(C)C)C(=O)N[C@@H](CC(C)C)C(=O)N[C@@H](Cc1ccccc1)C(=O)N[C@H](C(=O)N[C@@H](Cc1c[nH]cn1)C(=O)N[C@@H](Cc1ccccc1)C(=O)N[C@@H](CCCNC(=N)N)C(=O)N[C@H](C(=O)NCC(=O)N[C@@H](CS)C(=O)N[C@@H](CCCNC(=N)N)C(=O)N[C@@H](Cc1c[nH]cn1)C(=O)N[C@@H](CO)C(=O)N[C@@H](CCCNC(=N)N)C(=O)N[C@H](C(=O)NCC(=O)N[C@H](C(=O)N[C@H](C(=O)N[C@@H](CCCNC(=N)N)C(=O)N[C@@H](CCC(N)=O)C(=O)N[C@@H](CCCNC(=N)N)C(=O)N[C@@H](CCCNC(=N)N)C(=O)N[C@@H](C)C(=O)N[C@@H](CCCNC(=N)N)C(=O)N[C@@H](CC(N)=O)C(=O)NCC(=O)N[C@@H](C)C(=O)N[C@@H](CO)C(=O)N[C@@H](CCCNC(=N)N)C(=O)N[C@@H](CO)C(=O)O)[C@@H](C)O)C(C)C)[C@@H](C)CC)[C@@H](C)CC)[C@@H](C)CC)[C@@H](C)CC)[C@@H](C)CC` [Vpr52-96], the “respiratory control (RC) value” in assay [10] is on record as 1.1. In addition, in assay [11], the “affinity of Vpr C-terminus for purified ANT” value was “high affinity in the nanomolar range”. Also, in assay [12] (as printed in Example 4), the “conductance of Vpr52-96-ANT channels without any further addition” value is 190±2. In addition, the “channel formation in planar lipid bilayers without ANT” value in [12] (low doses (<1 nM), no ANT) was “incapable of forming channels”. The Kd in assay [13] is 9.7 ± 6.4 nM. Further, in assay [3] (3 μM, 5 or 15 min), the “ultrastructural effect on mitochondria” value is on record as “matrix swelling before OM rupture became apparent”. For the same molecule, the “Vpr52-96 binding to ANT liposomes compared to protein-free liposomes” value in [4] is recorded as “greatly facilitated”. In addition, the “timing of ΔΨm loss relative to cytochrome c release” value in assay [5] (Vpr52-96 1 μM) is “well before cytochrome c release can be detected”.

B1: ANT-2-derived peptide ANT104-116 (peptide)
peptide: DKRTQFWRYFAGN
modifications: not checked
Regarding B1, the Kd in assay [14] turned out to be 35000 nM.

B2: Vpr52-96, P12520 52-96 (peptide)
peptide: DTWAGVEAIIRILQQLLFIHFRIGCRHSRIGVTRQRRARNGASRS
modifications: not checked
As to B2, in assay [15], the conductance of Vpr52-96-ANT channels in the presence of Bax is 245 and the conductance of channels in planar lipid bilayers is 190 pS.

B3: FITC-labeled Vpr52-96, P12520 52-96 (peptide)
peptide: B2 peptide
modifications: not fully specified
As to B3, in [16], the EC50 (read off the curve) came out at 900 nM.
